Here are results for seven molecules from US11723908B2, “Quinazoline derivatives as antitumor agents” (SUZHOU ZANRONG PHARMA LIMITED, priority 2018, dated 2023).

For one experiment, the target named is HER2 (Homo sapiens (Human), UniProt P04626). Briefly: BT474 cellular assay (HER2 inhibition), phospho-HER2 ELISA. The class given is cell-based. As to conditions: inhibition of phosphor HER2, BT474 cells, 2 hours compound incubation. Here is the method:
Assay a) BT474 Cellular Assay (HER2 Inhibition) Inhibition of phosphor HER2 was determined by enzyme-linked immunosorbent assay (ELISA) in BT474 cells. BT474 cell line was purchased from [NT] number HTB-20). Human Phospho-ErbB2 ELISA kit was purchased from R&D systems (catalog number DYC1768). Day 1: When the cells reach 70-90% confluence, cells were trypsinized and re-suspended. 5000 cells per well were seeded to a 384-well plate. The plate was incubated at 37° C. with 5% CO2 for 24 hours. ELISA plate was coated with 2 μg/ml capture antibody, which was incubated at 4° C. overnight. Day 2: 25 nl compounds was dosed by Echo from source plate and the 384-well plate was incubated at 37° C. for 2 hours. 30 μl lysis buffer was added to each well and the 384-well plate was shaken softly at 4° C. for 30 minutes. The ELISA plate was washed, blocked and incubated at room temperature for 1-2 hours. The blocked ELISA plate was washed and 20 μl cell lysate was transferred from the 384-well plate to the ELISA plate, which was incubated overnight at 4° C. Day 3: The ELISA plate was washed 3 times. 25 μl/well detection antibody was added (diluted 1 by 2000 in 1% BSA in PBS). After 2 hours of incubation with detection antibody, the ELISA plate was washed 3 times, 25 μl/well TMB substrate was added and incubated for 10-15 minutes before stop solution was added. Absorbance at 450 nm and 570 nm was read within 30 minutes after adding the stop solution. […] The IC50 results are provided in Table 1 for some exemplary compounds.

The next experiment deals with wt-EGFR (Homo sapiens (Human), UniProt P00533). The experiment is described as follows: NCI H838 cellular assay (wt-EGFR inhibition), phospho-EGFR ELISA. The class given is cell-based. As to conditions: inhibition of phosphor wt-EGFR, NCI H838 cells, EGF 100 ng/ml. Here is the method: Assay b) NCI H838 Cellular Assay (Wt-EGFR Inhibition) Inhibition of phosphor wt-EGFR was determined by enzyme-linked immunosorbent assay (ELISA) in NCI H838 cells (ATCC, catalog number CRL-5844). Human Phospho-EGFR DuoSet IC ELISA kit was purchased from R&D systems (catalog number DYC1095). Day 1: When the cells reach 70-90% confluence, cells were trypsinized and re-suspended. 5000 cells per well were seeded to a 384-well plate. The plate was incubated at 37° C. with 5% CO2 for 24 hours. Day 2: Cell culture medium was replaced with 40 μL FBS-Free RPMI1640. After 2 hours of starvation, the 384-well plate was dosed with 40 nL of compounds by Echo from source plate and the 384-well plate was incubated at 37° C. with 5% CO2 for 2 hours. After 2 hours of incubation with compounds, EGF (final concentration at 100 ng/ml) was added to the plate which was incubated at 37° C. with 5% CO2 for 5-10 minutes. Medium was discarded from the plate and 30 μl/well lysis buffer was added to the plate which was incubated at 4° C. for 10 minutes. The cell lysates can be stored at −80° C. in cell plates but must be thawed at room temperature for at least 30 minutes prior to use and continuing the assay. ELISA plate was coated by diluting capture antibody to 4 μg/ml with PBS, and 25 μl/well was dispensed to 384 well UltraCruz® ELISA Plate, which was incubated at 4° C. overnight. Day 3: After the plates were washed three times with 100 μl/well of wash buffer, the plates were blocked by adding 75 μl of Block Buffer to each well and incubated at room temperature for 3 hours. After the plates were washed three times with 100 μl/well of wash buffer, 20 μl cell lysate was transferred to the blocked ELISA plate which was incubated for 2 hours at room temperature. After the plates were washed three times with 100 μl/well of wash buffer, 25 μl/well detection antibody (dilute 1 in 900 in assay buffer) was added the plate which was incubated for 2 hours, protected from light. After washed three times, 25 μl/well TMB substrate was added to the ELISA plate which was incubated for about 10-15 min, protected from light before addition of 25 μl/well stop solution. Absorbance was read at 450 nm and 570 nm within 30 minutes.
(In general: In an ELISA, binding on a coated surface is turned into a signal by an enzyme label.)

Chain of HER2 (P04626 23-1255): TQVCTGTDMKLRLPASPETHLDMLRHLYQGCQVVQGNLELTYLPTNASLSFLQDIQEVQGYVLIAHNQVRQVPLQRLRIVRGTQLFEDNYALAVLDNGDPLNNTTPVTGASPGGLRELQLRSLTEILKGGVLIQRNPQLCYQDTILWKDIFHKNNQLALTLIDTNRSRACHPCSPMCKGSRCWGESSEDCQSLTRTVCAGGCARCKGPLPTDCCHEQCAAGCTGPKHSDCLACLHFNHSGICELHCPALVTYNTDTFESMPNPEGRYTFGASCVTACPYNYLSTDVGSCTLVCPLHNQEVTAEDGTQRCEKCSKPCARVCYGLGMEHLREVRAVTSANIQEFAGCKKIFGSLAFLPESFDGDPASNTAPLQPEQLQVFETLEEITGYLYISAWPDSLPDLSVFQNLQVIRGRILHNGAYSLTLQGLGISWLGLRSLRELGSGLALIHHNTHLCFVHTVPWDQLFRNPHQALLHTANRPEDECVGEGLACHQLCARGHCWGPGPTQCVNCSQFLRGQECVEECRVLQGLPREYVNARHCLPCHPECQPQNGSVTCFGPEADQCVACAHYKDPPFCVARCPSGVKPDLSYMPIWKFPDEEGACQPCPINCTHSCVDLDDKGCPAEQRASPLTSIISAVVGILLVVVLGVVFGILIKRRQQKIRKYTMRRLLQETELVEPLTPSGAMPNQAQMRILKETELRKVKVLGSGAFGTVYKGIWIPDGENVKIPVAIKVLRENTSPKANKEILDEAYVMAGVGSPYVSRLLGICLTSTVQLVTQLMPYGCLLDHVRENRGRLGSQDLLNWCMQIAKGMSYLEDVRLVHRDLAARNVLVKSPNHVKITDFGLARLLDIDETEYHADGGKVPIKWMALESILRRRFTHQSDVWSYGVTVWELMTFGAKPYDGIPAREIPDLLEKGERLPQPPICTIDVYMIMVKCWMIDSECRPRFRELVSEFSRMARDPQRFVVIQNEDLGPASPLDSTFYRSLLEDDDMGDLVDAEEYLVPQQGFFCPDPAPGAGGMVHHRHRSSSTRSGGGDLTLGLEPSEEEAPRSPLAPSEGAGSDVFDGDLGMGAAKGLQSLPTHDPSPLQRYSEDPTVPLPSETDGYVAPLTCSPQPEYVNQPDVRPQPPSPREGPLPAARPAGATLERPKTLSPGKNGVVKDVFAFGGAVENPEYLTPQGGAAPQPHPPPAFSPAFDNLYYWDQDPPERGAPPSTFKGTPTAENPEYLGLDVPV
Chain of wt-EGFR (P00533 25-1210): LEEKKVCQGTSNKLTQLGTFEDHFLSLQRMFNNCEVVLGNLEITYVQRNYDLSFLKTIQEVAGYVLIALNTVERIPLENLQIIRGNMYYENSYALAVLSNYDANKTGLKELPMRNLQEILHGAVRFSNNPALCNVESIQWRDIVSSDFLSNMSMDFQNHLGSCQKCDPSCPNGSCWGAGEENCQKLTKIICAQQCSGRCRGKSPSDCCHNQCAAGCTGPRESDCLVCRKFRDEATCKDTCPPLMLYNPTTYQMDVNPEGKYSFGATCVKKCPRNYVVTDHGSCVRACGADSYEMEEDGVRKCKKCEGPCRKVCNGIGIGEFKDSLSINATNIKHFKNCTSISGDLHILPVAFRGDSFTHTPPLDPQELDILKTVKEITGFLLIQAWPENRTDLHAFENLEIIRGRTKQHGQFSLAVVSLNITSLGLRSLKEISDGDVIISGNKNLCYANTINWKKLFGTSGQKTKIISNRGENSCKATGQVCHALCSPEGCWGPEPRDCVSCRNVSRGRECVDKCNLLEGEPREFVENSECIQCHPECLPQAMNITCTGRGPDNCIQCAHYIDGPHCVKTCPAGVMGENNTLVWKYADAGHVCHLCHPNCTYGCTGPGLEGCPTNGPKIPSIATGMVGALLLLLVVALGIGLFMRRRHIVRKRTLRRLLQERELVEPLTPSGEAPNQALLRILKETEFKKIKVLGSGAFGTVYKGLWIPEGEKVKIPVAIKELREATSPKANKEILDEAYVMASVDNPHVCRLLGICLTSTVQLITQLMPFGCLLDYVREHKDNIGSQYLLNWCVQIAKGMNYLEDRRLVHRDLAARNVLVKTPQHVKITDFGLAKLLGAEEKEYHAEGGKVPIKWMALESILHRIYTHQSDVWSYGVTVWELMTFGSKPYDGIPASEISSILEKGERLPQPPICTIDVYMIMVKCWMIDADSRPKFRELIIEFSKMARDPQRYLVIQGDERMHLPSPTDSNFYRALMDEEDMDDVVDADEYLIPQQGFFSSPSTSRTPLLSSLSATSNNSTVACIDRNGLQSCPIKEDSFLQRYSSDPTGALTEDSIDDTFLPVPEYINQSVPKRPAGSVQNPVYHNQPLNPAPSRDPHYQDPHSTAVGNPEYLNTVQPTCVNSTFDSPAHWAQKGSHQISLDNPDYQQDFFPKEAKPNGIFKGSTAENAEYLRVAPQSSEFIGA

As a reminder, the IC50 is the concentration needed to halve the response being measured. For `COc1ccc2ncnc(Nc3ccc(Oc4cc5ncnn5cn4)c(C)c3)c2c1N1C[C@@H](N(C)C)[C@@H](F)C1` [Example 39, N-(4-([1,2,4]triazolo[1,5-c]pyrimidin-7-yloxy)-3-methylphenyl)-5-((3R,4S)-3-(dimethylamino)-4-fluoropyrrolidin-1-yl)-6-methoxyquinazolin-4-amine], the IC50 on HER2 is 94 nM; at wt-EGFR, over 10000 nM.
The corresponding values for `COc1ccc2ncnc(Nc3ccc(Oc4cc5ncnn5cn4)c(C)c3)c2c1N1C[C@H]2[C@@H]1CCN2C` [Example 45, N-(4-([1,2,4]triazolo[1,5-c]pyrimidin-7-yloxy)-3-methylphenyl)-6-methoxy-5-((1S,5S)-2-methyl-2,6-diazabicyclo[3.2.0]heptan-6-yl)quinazolin-4-amine] are 2.5 nM and 6600 nM.
The corresponding values for `COc1ccc2ncnc(Nc3ccc(Oc4cc5ncnn5cn4)c(C)c3)c2c1N1CCOCC1` [Example 4, N-(4-([1,2,4]triazolo[1,5-c]pyrimidin-7-yloxy)-3-methylphenyl)-6-methoxy-5-morpholinoquinazolin-4-amine] are 105 nM and over 10000 nM.
For `COc1ccc2ncnc(Nc3ccc(Oc4cc5ncnn5cn4)c(C)c3)c2c1N1CC2OCCN(C)C2C1` (centres unmarked) [Example 42, N-(4-([1,2,4]triazolo[1,5-c]pyrimidin-7-yloxy)-3-methylphenyl)-6-methoxy-5-(4-methylhexahydropyrrolo[3,4-b][1,4]oxazin-6(2H)-yl)quinazolin-4-amine] the same measures were 58 nM and over 10000 nM.
Take `COc1ccc2ncnc(Nc3ccc(Oc4cc5ncnn5cn4)c(C)c3)c2c1N1CC2(C[C@H](F)CCN2C)C1` (single isomer, unassigned) [Example 47]: the IC50 on HER2 amounted to 4.1 nM; at wt-EGFR, 4540 nM.
The corresponding values for `COc1ccc2ncnc(Nc3ccc(Oc4cc5ncnn5cn4)c(Cl)c3)c2c1O[C@H]1CCN(C)CC1(F)F` [Example 34, (S)—N-(4-([1,2,4]triazolo[1,5-c]pyrimidin-7-yloxy)-3-chlorophenyl)-5-((3,3-difluoro-1-methylpiperidin-4-yl)oxy)-6-methoxyquinazolin-4-amine] are 18 nM and 6300 nM.
With `CCOc1ccc2ncnc(Nc3ccc(Oc4cc5ncnn5cn4)c(C)c3)c2c1N1CC(N(C)C)C1` [Example 11, N-(4-([1,2,4]triazolo[1,5-c]pyrimidin-7-yloxy)-3-methylphenyl)-5-(3-(dimethylamino)azetidin-1-yl)-6-ethoxyquinazolin-4-amine], the results for the IC50 against HER2 and against wt-EGFR were 13 nM and 6700 nM, respectively.
